Assay results taken from article PMC8460535, “Novel serotonin 5-HT2A receptor antagonists derived from 4-phenylcyclohexane-5-spiro-and 5-methyl-5-phenyl-hydantoin, for use as potential antiplatelet agents” (Pharmacological Reports, 2021).
Like-named read-outs stand apart in the source and are kept apart here. Marks after values point to notes of the source that are not given here.

How the values were obtained:
[1] = system: whole rat blood aggregation induced by 5-HT and ADP; experiment: In vitro whole rat blood aggregation induced by 5-HT and sub-threshold ADP; assay type: cell-based; settings: 5-HT 6 μM and ADP 1.6 μM, na = not active, read-out: c (5-HT + ADP) IC50
Experimental: (§1) In vitro aggregation assays were performed using freshly drawn whole rat blood with a Multiplate platelet function analyzer (Roche Diagnostic), the five-channel aggregometer based on measurements of electric impedance. Blood was collected from carotid arteries with a hirudin blood tube (Roche Diagnostic). 300 μl of hirudin anticoagulated blood was mixed with 300 μl prewarmed isotonic saline solution containing studied compound or vehicle (deionized water or DMSO 0.1%) and preincubated for 3 min at 37 °C with continuous stirring. Aggregation was induced by adding collagen (Hyphen-Biomed, France) (final concentration 1.6 µg/ml), 5-HT (30 µM) and sub-threshold concentration of collagen (0.8 µg/ml), 5-HT (6 µM) and sub-threshold concentration of ADP (ADP test, Roche Diagnostic), (1.6 µM). The aggregation process was recorded for 6 min. Ketanserin (ketanserin ( +) tartrate salt, Sigma-Aldrich, Germany), sarpogrelate (sarpogrelate hydrochloride, Sigma-Aldrich, Germany), and aspirin (Tocris, UK) were used as reference compounds. The Multiplate software analyzed the area under the curve (AUC) of the clotting process of each measurement and calculated the mean values. Each concentration of studied compounds was tested at least three times. The exact sample size (n value) is presented on Figs. 2–4. Concentration-inhibition curves were constructed and analyzed by non-linear curve fitting using GraphPad Prism 6.0 (GraphPad Software Inc., San Diego, CA, USA).

[2] = target: T1, 5-HT2A receptors in rat aorta (Rattus norvegicus, UniProt P14842); settings: already published; cited from earlier work
T1 construct: Isolated rat aorta was used to determine the antagonistic activity of studied compounds for 5HT2A-receptors; from tissue; host or cells: aortic rings of male Wistar rats, denuded of the endothelium

[3] = target: 5-HT2A receptor; settings: cited from earlier work
[4] = target: dopamine D2 receptor; set-up: method as in Czopek et al., Acta Pol. Pharm. 73 (2016) 1545–1554; settings: ref Czopek et al., Acta Pol. Pharm. 73 (2016) 1545–1554; read-out: Ki ± SEM [nM] D2; cited from earlier work
[5] = target: serotonin 5-HT1A receptor; set-up: method as in Czopek et al., Acta Pol. Pharm. 73 (2016) 1545–1554; settings: ref Czopek et al., Acta Pol. Pharm. 73 (2016) 1545–1554; read-out: Ki ± SEM [nM] 5-HT1A; cited from earlier work
[6] = system: whole rat blood aggregation induced by 5-HT and collagen; experiment: In vitro whole rat blood aggregation induced by 5-HT and sub-threshold collagen; assay type: cell-based; settings: 5-HT 30 μM and collagen 0.8 μg/ml, read-out: b (5-HT + collagen) IC50
Experimental: as §1

[7] = target: T2, human 5-HT2A receptor (Homo sapiens, UniProt P28223); experiment: 5-HT2A receptor radioligand binding assay ([3H]-ketanserin, CHO-K1 membranes); settings: radioligand binding, compound 13 vs compound 3
T2 construct: purchased PerkinElmer; host or cells: CHO-K1 cells, stably transfected
Experimental: Stock solutions of tested compounds (10 mM) were prepared in DMSO. […] Each compound was tested in eight concentrations from 10^–5 to 10^–12 M (final concentration).
Radioligand binding was performed using membranes from CHO-K1 cells stably transfected with the human 5-HT2A receptor (PerkinElmer). All assays were carried out in duplicates. Data were fitted to a one-site curve-fitting equation with Prism 6 (GraphPad Software) and Ki values were estimated from the Cheng − Prusoff equation. The full description of this assay is in Supplementary material.
Mianserin (10 μM) was used to define nonspecific binding. […] The reaction was terminated by rapid filtration through GF/B filter mate presoaked with 0.5% polyethyleneimine for 30 minutes. Ten rapid washes with 200 µl 50 mM Tris buffer (4°C, pH 7.4) were performed using automated harvester system Harvester-96 MACH III FM (Tomtec). […] Radioactivity was counted in MicroBeta2 scintillation counter (PerkinElmer).

[8] = system: whole rat blood aggregation induced by collagen; experiment: In vitro whole rat blood aggregation induced by collagen (Multiplate); assay type: cell-based; settings: collagen 1.6 μg/ml, na = not active
Experimental: as §1

[9] = target: T2, human 5-HT2A receptor; set-up: method as in PMID 29111111; settings: cells expressing human 5-HT2A receptors; already published; cited from earlier work
[10] = system: whole rat blood aggregation induced by 5-HT and ADP; set-up: method as in PMID 29111111; settings: 5-HT 6 μM and ADP 1.6 μM, already published, read-out: c (5-HT + ADP) IC50; cited from earlier work

T1 sequence (P14842 whole entry): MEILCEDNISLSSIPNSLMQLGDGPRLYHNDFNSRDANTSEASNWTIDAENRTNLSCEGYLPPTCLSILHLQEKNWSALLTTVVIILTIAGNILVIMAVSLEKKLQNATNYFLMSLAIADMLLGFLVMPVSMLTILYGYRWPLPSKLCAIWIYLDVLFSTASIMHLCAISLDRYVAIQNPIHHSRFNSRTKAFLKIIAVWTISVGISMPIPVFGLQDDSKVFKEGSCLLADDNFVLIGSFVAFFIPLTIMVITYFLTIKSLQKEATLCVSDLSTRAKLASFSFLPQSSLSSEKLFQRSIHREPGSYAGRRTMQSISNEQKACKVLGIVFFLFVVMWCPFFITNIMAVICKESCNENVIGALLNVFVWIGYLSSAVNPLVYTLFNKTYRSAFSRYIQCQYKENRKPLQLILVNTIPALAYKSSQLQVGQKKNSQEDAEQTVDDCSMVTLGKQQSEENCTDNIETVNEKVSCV
T2 sequence (P28223 whole entry): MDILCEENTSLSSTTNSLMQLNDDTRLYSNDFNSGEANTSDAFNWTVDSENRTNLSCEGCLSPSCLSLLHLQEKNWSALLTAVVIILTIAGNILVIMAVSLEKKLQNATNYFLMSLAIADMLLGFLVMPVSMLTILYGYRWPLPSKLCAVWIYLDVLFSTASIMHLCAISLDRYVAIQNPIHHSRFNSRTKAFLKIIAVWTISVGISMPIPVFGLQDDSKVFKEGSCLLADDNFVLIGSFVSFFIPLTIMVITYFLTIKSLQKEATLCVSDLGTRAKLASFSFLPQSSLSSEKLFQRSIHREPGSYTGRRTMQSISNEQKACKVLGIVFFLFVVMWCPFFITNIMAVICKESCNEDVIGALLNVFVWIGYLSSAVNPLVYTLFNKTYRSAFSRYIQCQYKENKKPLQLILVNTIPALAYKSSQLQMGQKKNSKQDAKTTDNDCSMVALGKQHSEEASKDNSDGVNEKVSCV

| SMILES | IC50 [1] [µM] | pKB ± SEM a [2] | Ki ([3]; Table S1, ref Czopek et al., Acta Pol. Pharm. 73 (2016) 1545–1554, read-out: Ki ± SEM [nM] 5-HT2A) [nM] | Ki ([3]; serotonin 5-HT2A receptors, already published and re-printed for comparison, read-out: Ki [nM] ± SEM) [nM] | Ki [4] [nM] | Ki [5] [nM] | IC50 [6] [µM] | fold higher affinity for 5-HT2A compared to compound 3 [7] | IC50 [8] [µM] | Ki ([3]; 5-HT2A receptors, previous studies, read-out: Ki (5-HT2A) of earlier hydantoin leads) [nM] | pKB ± SEM b [9] | IC50 [10] [µM] |
| --- | --- | --- | --- | --- | --- | --- | --- | --- | --- | --- | --- | --- |
| O=C1NC2(CCC(c3ccccc3)CC2)C(=O)N1CCCN1CCN(c2cccc(Cl)c2)CC1 (stereo not shown) [Compound 14, 3-(3-(4-(3-chlorophenyl)piperazin-1-yl)propyl)-8-phenyl-1,3-diazaspiro[4.5]decane-2,4-dione] | 93.8 ± 9.4 | 7.110 ± 0.05^a | 56 ± 7 | 24 ± 2.5 | > 10000 | 5210 ± 268 | 75.8 ± 16.6 |  |  |  |  |  |
| O=C1NC2(CCC(c3ccccc3)CC2)C(=O)N1CCCN1CCN(c2ccccc2)CC1 (stereo not shown) [Compound 13, 8-phenyl-3-(3-(4-phenylpiperazin-1-yl)propyl)-1,3-diazaspiro[4.5]decane-2,4-dione] | 9.9 ± 2.5 | 7.665 ± 0.03^a |  |  | > 10000 | 1670 ± 75 | 53.3 ± 4.6 | over 25 fold | 27.3 ± 3.8 | 50 |  |  |
| COc1cccc(CCc2ccccc2OCC(CN(C)C)OC(=O)CCC(=O)O)c1 (stereo not shown) [Sarpogrelate] |  | 8.220 ± 0.08^b |  |  |  |  |  |  | 66.8 ± 12.9 |  | 7.296 ± 0.04^b | 22.7 ± 2.1 |
